In ChEMBL document CHEMBL1255373, “In vitro antibacterial activity of CE-156811, a novel analog derived from hygromycin A” (2008):

Experiments:
Type in all cases: functional
Citrobacter koseri = experiment: Antibacterial activity against Citrobacter diversus clinical isolate by broth microdilution method
Escherichia coli = experiment: Antibacterial activity against Escherichia coli clinical isolate by broth microdilution method
[1] = system: Stenotrophomonas maltophilia; experiment: Antibacterial activity against Stenotrophomonas maltophilia clinical isolate by broth microdilution method
Morganella morganii = experiment: Antibacterial activity against Morganella morganii clinical isolate by broth microdilution method
Haemophilus influenzae = experiment: Antibacterial activity against Haemophilus influenzae clinical isolate by broth microdilution method
Citrobacter freundii = experiment: Antibacterial activity against Citrobacter freundii clinical isolate by broth microdilution method
Klebsiella pneumoniae [2] = experiment: Antibacterial activity against Klebsiella pneumoniae clinical isolate by broth microdilution method
Burkholderia cepacia = experiment: Antibacterial activity against Burkholderia cepacia clinical isolate by broth microdilution method
Providencia rettgeri = experiment: Antibacterial activity against Providencia rettgeri clinical isolate by broth microdilution method
Klebsiella oxytoca = experiment: Antibacterial activity against Klebsiella oxytoca clinical isolate by broth microdilution method
Serratia marcescens = experiment: Antibacterial activity against Serratia marcescens clinical isolate by broth microdilution method
Klebsiella aerogenes = experiment: Antibacterial activity against Enterobacter aerogenes clinical isolate by broth microdilution method
Legionella pneumophila = experiment: Antibacterial activity against Legionella pneumophila clinical isolate by broth microdilution method
Staphylococcus = experiment: Antibacterial activity against coagulase-negative Staphylococcus clinical isolate by broth microdilution method
Enterobacter cloacae = experiment: Antibacterial activity against Enterobacter cloacae clinical isolate by broth microdilution method
Listeria monocytogenes = experiment: Antibacterial activity against Listeria monocytogenes clinical isolate by broth microdilution method
Shigella sp. = experiment: Antibacterial activity against Shigella sp. by broth microdilution method
Streptococcus pyogenes = experiment: Antibacterial activity against Streptococcus pyogenes clinical isolate by broth microdilution method
Salmonella sp. = experiment: Antibacterial activity against Salmonella sp. by broth microdilution method
Moraxella catarrhalis = experiment: Antibacterial activity against Moraxella catarrhalis clinical isolate by broth microdilution method
Corynebacterium sp. = experiment: Antibacterial activity against Corynebacterium sp. by broth microdilution method
Proteus vulgaris = experiment: Antibacterial activity against Proteus vulgaris clinical isolate by broth microdilution method
Acinetobacter sp. = experiment: Antibacterial activity against Acinetobacter sp. by broth microdilution method
Klebsiella pneumoniae [3] = experiment: Antibacterial activity against extended-spectrum beta-lactamase producing Klebsiella pneumoniae clinical isolate by broth microdilution method
Neisseria sp. = experiment: Antibacterial activity against Neisseria sp. by broth microdilution method
Proteus mirabilis = experiment: Antibacterial activity against Proteus mirabilis clinical isolate by broth microdilution method
Pseudomonas aeruginosa = experiment: Antibacterial activity against Pseudomonas aeruginosa clinical isolate by broth microdilution method
Enterococcus faecium [4] = experiment: Antibacterial activity against linezolid-resistant Enterococcus faecium 03B1077 by broth microdilution method
Enterococcus faecium [5] = experiment: Antibacterial activity against vancomycin-susceptible Enterococcus faecium clinical isolate by broth microdilution method
Enterococcus faecium [6] = experiment: Antibacterial activity against linezolid-resistant Enterococcus faecium 03B1073 by broth microdilution method
Enterococcus faecium [7] = experiment: Antibacterial activity against vancomycin-resistant Enterococcus faecium clinical isolate by broth microdilution method
Enterococcus faecalis [8] = experiment: Antibacterial activity against vancomycin-susceptible Enterococcus faecalis clinical isolate by broth microdilution method
Enterococcus faecium [9] = experiment: Antibacterial activity against linezolid-resistant Enterococcus faecium 03B1075 by broth microdilution method
Enterococcus faecium [10] = experiment: Antibacterial activity against linezolid-resistant Enterococcus faecium 03B1076 by broth microdilution method
Staphylococcus aureus [11] = experiment: Antibacterial activity against glycopeptide-intermediate Staphylococcus aureus clinical isolate by broth microdilution method
Enterococcus faecalis [12] = experiment: Antibacterial activity against vancomycin-resistant Enterococcus faecalis clinical isolate by broth microdilution method
Enterococcus faecalis [13] = experiment: Antibacterial activity against linezolid-resistant Enterococcus faecalis 03A1128 by broth microdilution method
Enterococcus faecium [14] = experiment: Antibacterial activity against linezolid-resistant Enterococcus faecium 03B1074 by broth microdilution method
Streptococcus pneumoniae [15] = experiment: Antibacterial activity against penicillin-nonsusceptible Streptococcus pneumoniae clinical isolate by broth microdilution method
Staphylococcus aureus [16] = experiment: Antibacterial activity against methicillin-susceptible Staphylococcus aureus clinical isolate by broth microdilution method
Staphylococcus aureus [17] = experiment: Antibacterial activity against linezolid-resistant Staphylococcus aureus 01A1221 by broth microdilution method
Enterococcus faecium [18] = experiment: Antibacterial activity against linezolid-resistant Enterococcus faecium 03B1078 by broth microdilution method
Staphylococcus aureus [19] = experiment: Antibacterial activity against methicillin-resistant Staphylococcus aureus clinical isolate by broth microdilution method
Staphylococcus aureus [20] = experiment: Antibacterial activity against linezolid-resistant Staphylococcus aureus 01A1220 by broth microdilution method
[21] = system: Staphylococcus epidermidis; experiment: Antibacterial activity against methicillin-susceptible Staphylococcus epidermidis clinical isolate by broth microdilution method
Streptococcus pneumoniae [22] = experiment: Antibacterial activity against penicillin-susceptible Streptococcus pneumoniae clinical isolate by broth microdilution method
Enterococcus faecalis [23] = experiment: Antibacterial activity against […] Enterococcus faecalis ATCC 29212 by broth microdilution method

C[C@H]1COc2c(N3CCN(C)CC3)c(F)cc3c(=O)c(C(=O)O)cn1c23.C[C@H]1COc2c(N3CCN(C)CC3)c(F)cc3c(=O)c(C(=O)O)cn1c23.O [LEVOFLOXACIN]
0.004 mg/L: MIC50 (Legionella pneumophila)
2 mg/L: MIC50 [1] | MIC50 (Burkholderia cepacia) | MIC90 (Streptococcus pyogenes) | MIC50 (Acinetobacter sp.) | MIC50 (Pseudomonas aeruginosa)
0.06 mg/L: MIC50 (Citrobacter koseri) | MIC50 (Escherichia coli) | MIC50 (Morganella morganii) | MIC50 (Citrobacter freundii) | MIC50 (Klebsiella pneumoniae [2]) | MIC50 (Providencia rettgeri) | MIC50 (Klebsiella oxytoca) | MIC50 (Serratia marcescens) | MIC50 (Klebsiella aerogenes) | MIC50 (Enterobacter cloacae) | MIC50 (Shigella sp.) | MIC50 (Salmonella sp.) | MIC50 (Moraxella catarrhalis) | MIC90 (Moraxella catarrhalis) | MIC50 (Proteus vulgaris) | MIC50 (Klebsiella pneumoniae [3]) | MIC50 (Proteus mirabilis)
0.25 mg/L: MIC90 (Haemophilus influenzae) | MIC50 (Staphylococcus)
8 mg/L: MIC90 (Citrobacter koseri) | MIC90 (Escherichia coli) | MIC90 (Morganella morganii) | MIC90 (Citrobacter freundii) | MIC90 (Klebsiella pneumoniae [2]) | MIC90 (Providencia rettgeri) | MIC90 (Klebsiella oxytoca) | MIC90 (Serratia marcescens) | MIC90 (Klebsiella aerogenes) | MIC90 (Enterobacter cloacae) | MIC90 (Shigella sp.) | MIC90 (Salmonella sp.) | MIC90 (Proteus vulgaris) | MIC90 (Klebsiella pneumoniae [3]) | MIC90 (Proteus mirabilis)
0.015 mg/L: MIC50 (Haemophilus influenzae) | MIC90 (Legionella pneumophila)
32 mg/L: MIC90 (Staphylococcus) | MIC90 (Corynebacterium sp.)
16 mg/L: MIC90 [1] | MIC90 (Burkholderia cepacia) | MIC90 (Acinetobacter sp.) | MIC90 (Pseudomonas aeruginosa)
0.5 mg/L: MIC50 (Streptococcus pyogenes) | MIC50 (Corynebacterium sp.)
0.008 mg/L: MIC50 (Neisseria sp.) | MIC90 (Neisseria sp.)
1 mg/L: MIC50 (Listeria monocytogenes) | MIC90 (Listeria monocytogenes)

CC(=O)NC[C@H]1CN(c2ccc(N3CCOCC3)c(F)c2)C(=O)O1 [LINEZOLID]
0.5 mg/L: MIC (Staphylococcus aureus [11]) | MIC50 (Streptococcus pneumoniae [15]) | MIC50 [21]
> 32 mg/L: MIC (Enterococcus faecalis [13]) | MIC (Staphylococcus aureus [17]) | MIC (Staphylococcus aureus [20])
8 mg/L: MIC (Enterococcus faecium [4])
4 mg/L: MIC90 (Enterococcus faecium [7])
2 mg/L: MIC (Enterococcus faecium [5]) | MIC50 (Enterococcus faecium [5]) | MIC90 (Enterococcus faecium [5]) | MIC (Enterococcus faecium [6]) | MIC50 (Enterococcus faecium [7]) | MIC50 (Enterococcus faecalis [8]) | MIC90 (Enterococcus faecalis [8]) | MIC50 (Staphylococcus) | MIC90 (Staphylococcus) | MIC (Listeria monocytogenes) | MIC50 (Listeria monocytogenes) | MIC90 (Listeria monocytogenes) | MIC50 (Enterococcus faecalis [12]) | MIC90 (Enterococcus faecalis [12]) | MIC50 (Streptococcus pyogenes) | MIC90 (Streptococcus pyogenes) | MIC50 (Staphylococcus aureus [16]) | MIC90 (Staphylococcus aureus [16])
1 mg/L: MIC90 (Streptococcus pneumoniae [15]) | MIC50 (Corynebacterium sp.) | MIC90 (Corynebacterium sp.) | MIC (Staphylococcus aureus [19]) | MIC50 (Staphylococcus aureus [19]) | MIC90 (Staphylococcus aureus [19]) | MIC90 [21] | MIC50 (Streptococcus pneumoniae [22]) | MIC90 (Streptococcus pneumoniae [22])
32 mg/L: MIC (Enterococcus faecium [9]) | MIC (Enterococcus faecium [10]) | MIC (Enterococcus faecium [14]) | MIC (Enterococcus faecium [18])

CC1(C)S[C@@H]2[C@H](NC(=O)Cc3ccccc3)C(=O)N2[C@H]1C(=O)O [PENICILLIN G]
0.015 mg/L: MIC (Streptococcus pneumoniae [22]) | MIC50 (Streptococcus pneumoniae [22]) | MIC90 (Streptococcus pneumoniae [22])
2 mg/L: MIC50 (Streptococcus pneumoniae [15])
4 mg/L: MIC90 (Streptococcus pneumoniae [15])

CN[C@H](CC(C)C)C(=O)N[C@H]1C(=O)N[C@@H](CC(N)=O)C(=O)N[C@H]2C(=O)N[C@H]3C(=O)N[C@H](C(=O)N[C@H](C(=O)O)c4cc(O)cc(O)c4-c4cc3ccc4O)[C@H](O)c3ccc(c(Cl)c3)Oc3cc2cc(c3O[C@@H]2O[C@H](CO)[C@@H](O)[C@H](O)[C@H]2O[C@H]2C[C@](C)(N)[C@H](O)[C@H](C)O2)Oc2ccc(cc2Cl)[C@H]1O [VANCOMYCIN]
1 mg/L: MIC50 (Enterococcus faecium [5]) | MIC90 (Enterococcus faecium [5]) | MIC (Listeria monocytogenes) | MIC50 (Listeria monocytogenes) | MIC90 (Listeria monocytogenes) | MIC (Enterococcus faecalis [13]) | MIC90 (Corynebacterium sp.) | MIC90 (Staphylococcus aureus [16]) | MIC50 (Staphylococcus aureus [19]) | MIC50 [21]
4 mg/L: MIC90 (Enterococcus faecalis [8])
0.25 mg/L: MIC50 (Streptococcus pneumoniae [15]) | MIC90 (Streptococcus pneumoniae [15]) | MIC (Streptococcus pneumoniae [22]) | MIC50 (Streptococcus pneumoniae [22]) | MIC90 (Streptococcus pneumoniae [22])
2 mg/L: MIC50 (Enterococcus faecalis [8]) | MIC (Enterococcus faecalis [23]) | MIC50 (Staphylococcus) | MIC90 (Staphylococcus) | MIC90 (Staphylococcus aureus [19]) | MIC90 [21]
0.5 mg/L: MIC50 (Corynebacterium sp.) | MIC50 (Staphylococcus aureus [16])
> 32 mg/L: MIC (Enterococcus faecium [4]) | MIC (Enterococcus faecium [6]) | MIC50 (Enterococcus faecium [7]) | MIC90 (Enterococcus faecium [7]) | MIC (Enterococcus faecium [9]) | MIC50 (Enterococcus faecalis [12]) | MIC90 (Enterococcus faecalis [12]) | MIC (Enterococcus faecium [14]) | MIC (Enterococcus faecium [18])
